Measurements reported in PubChem BioAssay AID330 (DTP/NCI, 2004).
“And” between values parts separate entries of the source, which are not always exact repeats. Identical values can stand only once. Toxic doses and inconclusive results are not listed. The calls were made as follows: active = survival T/C of 150% or more; inactive = T/C below 125% in these data.

Test system: P388 leukemia ip, CD2F1 mice, survival T/C
Assay: NCI In Vivo Anticancer Drug Screen. Data for tumor model P388 Leukemia (intraperitoneal) in CD2F1 (CDF1) mice
Details: endpoint: median survival time, higher = longer survival
In short: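 Mice carrying the transplanted tumor received test compound or vehicle. Survival was recorded in each group, and the value is the treated-group measurement divided by that of the vehicle-treated control group.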

[1] = dose: 100.0 mg/kg/injection, schedule: Q01DX009 (ip), vehicle: Klucel (hydroxypropylcellulose) (HPC)
[2] = dose: 200.0 mg/kg/injection, schedule: Q01DX009 (ip), vehicle: Klucel (hydroxypropylcellulose) (HPC)
[3] = dose: 50.0 mg/kg/injection, schedule: Q01DX009 (ip), vehicle: saline with Tween-80
[4] = dose: 50.0 mg/kg/injection, schedule: Q01DX009 (ip), vehicle: saline
[5] = dose: 100.0 mg/kg/injection, schedule: Q01DX009 (ip), vehicle: saline with Tween-80
[6] = dose: 100.0 mg/kg/injection, schedule: Q01DX009 (ip), vehicle: saline
[7] = dose: 200.0 mg/kg/injection, schedule: Q01DX009 (ip), vehicle: saline with Tween-80
[8] = dose: 200.0 mg/kg/injection, schedule: Q01DX009 (ip), vehicle: saline
[9] = dose: 25.0 mg/kg/injection, schedule: Q01DX009 (ip), vehicle: saline with Tween-80
[10] = dose: 50.0 mg/kg/injection, schedule: Q01DX005 (ip), vehicle: Klucel (hydroxypropylcellulose) (HPC)
[11] = dose: 100.0 mg/kg/injection, schedule: Q01DX005 (ip), vehicle: Klucel (hydroxypropylcellulose) (HPC)
[12] = dose: 200.0 mg/kg/injection, schedule: Q01DX005 (ip), vehicle: Klucel (hydroxypropylcellulose) (HPC)
[13] = dose: 12.5 mg/kg/injection, schedule: Q01DX009 (ip), vehicle: saline with Tween-80
[14] = dose: 60.0 mg/kg/injection, schedule: Q01DX005 (ip), vehicle: saline with Tween-80
[15] = dose: 120.0 mg/kg/injection, schedule: Q01DX005 (ip), vehicle: saline with Tween-80
[16] = dose: 240.0 mg/kg/injection, schedule: Q01DX005 (ip), vehicle: saline with Tween-80

Measured: T/C

CC(C)(C)P(O)(=S)c1ccccc1 (centres undefined) (tested in a mixture with another compound)
inactive: dose: 100.0 mg/kg/injection, schedule: Q04DX003 (ip), vehicle: Klucel (hydroxypropylcellulose) (HPC) 102 % of control | dose: 200.0 mg/kg/injection, schedule: Q04DX003 (ip), vehicle: Klucel (hydroxypropylcellulose) (HPC) 102 % of control | dose: 400.0 mg/kg/injection, schedule: Q04DX003 (ip), vehicle: Klucel (hydroxypropylcellulose) (HPC) 100 % of control

O=C1Nc2ccccc2/C1=C/c1ccc(Cl)c(Cl)c1
inactive: dose: 6.25 mg/kg/injection, schedule: Q01DX009 (ip), vehicle: Klucel (hydroxypropylcellulose) (HPC) 96 % of control | dose: 12.5 mg/kg/injection, schedule: Q01DX009 (ip), vehicle: Klucel (hydroxypropylcellulose) (HPC) 95 % of control | dose: 25.0 mg/kg/injection, schedule: Q01DX009 (ip), vehicle: Klucel (hydroxypropylcellulose) (HPC) 92 % of control | [1] 86 % of control | [2] 90 % of control

O=C(CCl)N/N=C/c1ccccc1
inactive: [3] 106 % of control | [4] 97 % of control | [5] 107 % of control | [6] 95 % of control | [7] 111 % of control | [8] 96 % of control

Cc1cc2nc3c(=O)[nH]c(=O)nc-3n(CC(O)C(O)C(O)CO)c2cc1C (centres undefined)
inactive: [3] 99 % of control and 104 % of control | [5] 96 % of control and 98 % of control

CNCCCC1c2ccccc2C=Cc2ccccc21
inactive: dose: 6.25 mg/kg/injection, schedule: Q01DX009 (ip), vehicle: saline 100 % of control | dose: 12.5 mg/kg/injection, schedule: Q01DX009 (ip), vehicle: saline 90 % of control

O=S1(=O)Cc2c3c(c4c(c2C1)CS(=O)(=O)C4)CS(=O)(=O)C3
inactive: dose: 50.0 mg/kg/injection, schedule: Q04DX002 (ip), vehicle: Klucel (hydroxypropylcellulose) (HPC) 94 % of control | dose: 100.0 mg/kg/injection, schedule: Q04DX002 (ip), vehicle: Klucel (hydroxypropylcellulose) (HPC) 96 % of control | dose: 200.0 mg/kg/injection, schedule: Q04DX002 (ip), vehicle: Klucel (hydroxypropylcellulose) (HPC) 98 % of control

Cc1cc(O)c(C2(C)CCC3CC32C)cc1Br (centres undefined)
inactive: [9] 97 % of control | [3] 105 % of control | [5] 107 % of control | [7] 114 % of control

CC(C)(C)[Si](C)(C)ONC(=O)c1ccccc1
inactive: dose: 6.25 mg/kg/injection, schedule: Q01DX009 (ip), vehicle: distilled water + Tween-80 100 % of control | dose: 12.5 mg/kg/injection, schedule: Q01DX009 (ip), vehicle: distilled water + Tween-80 98 % of control | dose: 25.0 mg/kg/injection, schedule: Q01DX009 (ip), vehicle: distilled water + Tween-80 107 % of control | dose: 50.0 mg/kg/injection, schedule: Q01DX009 (ip), vehicle: distilled water + Tween-80 91 % of control | dose: 100.0 mg/kg/injection, schedule: Q01DX009 (ip), vehicle: distilled water + Tween-80 100 % of control | dose: 200.0 mg/kg/injection, schedule: Q01DX009 (ip), vehicle: distilled water + Tween-80 98 % of control | dose: 400.0 mg/kg/injection, schedule: Q01DX009 (ip), vehicle: distilled water + Tween-80 100 % of control

C(=N\Nc1nnc2c(n1)[nH]c1ccccc12)/c1ccccc1
inactive: dose: 100.0 mg/kg/injection, schedule: Q04DX002 (ip), vehicle: saline with Tween-80 89 % of control | dose: 200.0 mg/kg/injection, schedule: Q04DX002 (ip), vehicle: saline with Tween-80 90 % of control | dose: 400.0 mg/kg/injection, schedule: Q04DX002 (ip), vehicle: saline with Tween-80 98 % of control

O=C1CCSC(=S)N1c1ccc(Cl)c(C(F)(F)F)c1
inactive: dose: 25.0 mg/kg/injection, schedule: Q01DX009 (ip), vehicle: saline 101 % of control and 91 % of control | [4] 100 % of control and 106 % of control and 107 % of control | [6] 110 % of control and 118 % of control and 98 % of control | [8] 100 % of control and 119 % of control

COc1cc(-c2nn(CN3CCOCC3)c(=S)n2C)cc(OC)c1OC
inactive: [10] 103 % of control | [11] 103 % of control | [12] 100 % of control

O=C(O)CCCCCCCCCc1ccccc1
inactive: [13] 100 % of control | [9] 97 % of control | [3] 95 % of control | [4] 97 % of control

O=C(CCN1CCC23c4c5ccc(O)c4OC2C(O)C=CC3C1C5)c1ccccc1 (centres undefined)
inactive: [10] 88 % of control | [11] 99 % of control

O=C(/N=C1\N=Nc2nc(C(C(=O)c3cccs3)c3nc4n(c3O)/C(=N/C(=O)Nc3ccc(Cl)cc3)N=N4)c(O)n21)Nc1ccc(Cl)cc1 (centres undefined)
inactive: [14] 95 % of control | [15] 95 % of control | [16] 100 % of control

C=C(C)C(=O)OC1C(C(C)CCCO)=C(CO)CC2OC(=O)C(=C)C21 (centres undefined)
inactive: dose: 3.12 mg/kg/injection, schedule: Q01DX009 (ip), vehicle: saline + alcohol 108 % of control | dose: 6.25 mg/kg/injection, schedule: Q01DX009 (ip), vehicle: saline + alcohol 112 % of control | dose: 12.5 mg/kg/injection, schedule: Q01DX009 (ip), vehicle: saline + alcohol 118 % of control | dose: 25.0 mg/kg/injection, schedule: Q01DX009 (ip), vehicle: saline + alcohol 111 % of control

c1ccc(OCc2nn3c(-c4ccccc4)nnc3s2)cc1
inactive: [14] 107 % of control | [15] 94 % of control | [16] 93 % of control

O=[N+]([O-])c1cccnc1N=Nc1c(O)[nH]c2ccccc12
inactive: [14] 100 % of control | [15] 101 % of control | [16] 110 % of control

CSc1nc2c3ccccc3ccn2c(=N)c1C#N
inactive: dose: 25.0 mg/kg/injection, schedule: Q04DX002 (ip), vehicle: saline 104 % of control | dose: 50.0 mg/kg/injection, schedule: Q04DX002 (ip), vehicle: saline 109 % of control

O=C1OP2(c3ccccc3)(OC(=O)c3ccccc32)c2ccccc21
inactive: [13] 98 % of control and 94 % of control | [9] 99 % of control and 92 % of control | [3] 90 % of control and 95 % of control | [5] 95 % of control | [7] 88 % of control

COC(=O)c1cn(C)c(-c2ccccc2)c1C(=O)OC
inactive: [10] 100 % of control | [11] 100 % of control | [12] 97 % of control

CCN(CC)c1cccc(OC(=O)Nc2cccc(C(F)(F)F)c2)c1
inactive: [14] 106 % of control | [15] 94 % of control | [16] 97 % of control

COc1ccc2c(c1)O[C@H]1c3ccc(O)cc3OC[C@@H]21
inactive: dose: 50.0 mg/kg/injection, schedule: Q01DX005 (ip), vehicle: saline with Tween-80 100 % of control | dose: 100.0 mg/kg/injection, schedule: Q01DX005 (ip), vehicle: saline with Tween-80 91 % of control | dose: 200.0 mg/kg/injection, schedule: Q01DX005 (ip), vehicle: saline with Tween-80 91 % of control

Nc1nc(-c2ccc([N+](=O)[O-])cc2)cc(-c2cc(-c3ccc([N+](=O)[O-])cc3)nc(N)n2)n1
inactive: dose: 60.0 mg/kg/injection, schedule: Q01DX005 (ip), vehicle: Klucel (hydroxypropylcellulose) (HPC) 87 % of control | dose: 120.0 mg/kg/injection, schedule: Q01DX005 (ip), vehicle: Klucel (hydroxypropylcellulose) (HPC) 89 % of control | dose: 240.0 mg/kg/injection, schedule: Q01DX005 (ip), vehicle: Klucel (hydroxypropylcellulose) (HPC) 94 % of control

C[O+]=c1cccc2sc(-c3ccccc3)ccc1-2
inactive: [10] 99 % of control | [11] 108 % of control

NNC(=O)C(=O)NNC1CCCCC1
inactive: [1] 101 % of control | [2] 104 % of control
